Data set [1] relates to production of nitric oxide (NO). Kind of data set: Production of nitric oxide (NO) in cultures of mouse peritoneal cells stimulated with IFN-γ plus LPS (Griess reagent). The class given is cell-based, mice. As to conditions: Table 3A; substance 50 μmol·l^−1; IFN-g plus LPS; 24 h. Put shortly: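 C57BL/6 mouse peritoneal cells (2×10^6/mL) stimulated with IFN-γ (5000 pg/mL) plus LPS (100 pg/mL), compounds at 50 μmol·l^−1. Nitrite measured by Griess reagent after 24 h, expressed as % of stimulated control (set 100%); IC50 is concentration reducing NO by 50%.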
A general note: Griess reagent forms a coloured azo dye with nitrite.

Data set [2] concerns production of prostaglandin E2 (PGE2). Put plainly: Production of prostaglandin E2 (PGE2) in cultures of mouse peritoneal cells stimulated with LPS (ELISA kit). The class given is cell-based, mice. As to conditions: Table 3A, substance 50 μmol·l^−1, 6 h. Put shortly: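 C57BL/6 mouse peritoneal cells (3×10^6/mL) stimulated with LPS (10 ng/mL). PGE2 measured by ELISA.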
The test system of another data set is peritoneal cells of mice. Kind of data set: Cell viability of mouse peritoneal cells (WST-1 kit). As to conditions: Table 3A, substance 50 μmol·l^−1, 24 h. It is filed as cell-based. Put shortly:
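C57BL/6 mouse peritoneal cells (1×10^6/mL) cultured 24 h with compounds at 50 μmol·l^−1. Viability read with WST-1 tetrazolium salt and expressed as percent of untreated control cells (100%).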
(Tetrazolium assays rely on reduction of a dye to a coloured formazan, in cell work by metabolically active cells.)

Data set [3] concerns human umbilical vein endothelial cells (HUVEC). Put plainly: Tube formation assay of HUVEC on Matrigel (in vitro angiogenesis). The class given is cell-based. As to conditions: 8 h. The source says:
This so called “Tube Formation Assay” is a method based on the ability of endothelial cells to form capillary-like tubular structures when cultured on Matrigel™ (a gel of basement membrane extract—their natural substrate). The process of capillary-like tube formation includes endothelial cell attachment, migration, and differentiation into tubules. In this experiment, treatment with tested compounds started at the time of seeding HUVEC onto Matrigel and the extent of tubule development was observed after an 8 h time period. Disruption of tube formation was then assessed through observation of the tubular network and direct comparison to solvent-only controls. The quantitative and qualitative measurement of tubular network complexity was performed using web-based S.CORE imaging software and expressed by means of number of tubes, their total length, quality, number of branching points, etc. All these parameters were integrated into “tube formation index” which corresponds to the degree of complexity of tubular network. […] At a 10 μmol/L concentration, compound 23 reduced tube formation by >90%. […] Apoptosis in HUVECs (at ˜70% confluency) treated with or without varying concentrations (relevant for the tube formation assay) of tested substances was assessed by a combination of Annexin V and JC-1 staining. After 8 h of these treatments, cells were collected, and the cell population undergoing apoptosis was identified by double-parameter flow cytometry using annexin V and the vital dye propidium iodide (PI). Mitochondrial membrane potential in treated endothelial cells was measured using the lypophilic probe JC-1, which aggregates in healthy mitochondria and fluoresces red, but diffuses in the cytoplasm and fluoresces green upon mitochondrial damage. In both cases, quantification of apoptotic cells were conducted in BD FACSDiva software.

The test system of the next data set is HUVEC. Kind of data set: HUVEC cell proliferation (XTT assay). The class given is cell-based, human. As to conditions: 10 to 50 μmol/L, 8 hours.
Data set [4] relates to Salmonella typhimurium TA 98 and TA 100, Escherichia coli WP2 uvrA. The procedure:
With compound 28, its possible mutagenicity (genotoxicity) was assessed using the standard bacterial reverse mutation test. According to Council Regulation (ES) No. 440/2008, stipulating the test methods according to the European Parliament and Council regulation (ES), the method used was B.13/14, Mutagenicity—Reverse Mutation Test Using Bacteria, which is described in the same way also in the OECD Test Guideline No. 471.
[…] The experiments were conducted without using metabolic activation and after activation with supernatant S9 from […] livers and with mixtures of cofactors (NADP and glucoso-6-phosphate) to determine the mutagenicity of the metabolic products of the compound tested. Supernatant S9 was prepared according to the literature [Mutat. Res. 113, 173-215, 1983].
The principle of the test is to detect possible revertants created by reverse mutation, which would be induced in the bacterial culture by the tested compound. Specially constructed bacterial strains are used, carrying mutations in the place for his (trp), which are not capable of forming colonies on the minimum plates without histidine or tryptophan. […] Mutagenic potential is given by the growing number of revertants in the influenced groups in comparison with a negative control, and/or in dependence on the growing number of revertants on the dose of the tested compound.
Bacterial testers, types Salmonella typhimurium TA 98 (CCM 3811) and Escherichia coli WP2 uvrA (CCM 4751), were acquired from the Czech Collection of Microorganisms of Masaryk University, Brno and the strain Salmonella typhimurium TA100 (CIP 103796, lot No. 1008) from the Biological Resource Center, Institut Pasteur in Paris (CRBIP).

The structures appear in SMILES notation. Some results are limits rather than exact numbers.

For the compound `CCCCc1c(Cl)nc(N=CN(C)C)nc1Cl` [Substance 19], the “Production of nitric oxide in % of the controls” value in data set [1] is listed as 2.99 ± 0.53 % of the controls. Moreover, the “Production of prostaglandins in % of the controls” value in data set [2] is recorded as 14.93 ± 3.11 % of the controls. In addition, in the data set on peritoneal cells of mice, the “Cell viability in % of the controls” value was 123.21 ± 21.43 % of the controls. For the same compound, the “Effect on tube formation” value is “no inhibitory activity was detectable” in data set [3] (10 μmol/L) and “Partial differentiation” in data set [3] (25 μmol/L). Further, the Capillary tube formation entry in data set [3] was “inhibited capillary tube formation in a dose dependent manner”. Also, in the data set on HUVEC, the HUVEC cell proliferation entry is reported as “did not influence HUVEC cell proliferation”.
In the case of `CCCCc1c(Cl)ncnc1Cl` [Substance 61, 5-butyl-4,6-dichloropyrimidine], the melting point (commonly the temperature of the solid-liquid transition) was 62 to 63 °C.
On to `CCCCc1c(Cl)nc(N)nc1-c1cc2ccccc2o1` [Substance 44, 2-amino-4-(benzofuran-2-yl)-5-butyl-6-chloropyrimidine], for which the melting point lay within 195 to 196 °C.
Turning to `Nc1nc(Cl)c(Cc2ccccc2)c(Cl)n1` [Substance 34], the “Production of nitric oxide in % of the controls” value in data set [1] was 50.57 ± 9.31 % of the controls. The “Production of prostaglandins in % of the controls” value in data set [2] was 3.71 ± 2.00 % of the controls. In the data set on peritoneal cells of mice, the “Cell viability in % of the controls” value was 105.92 ± 20.65 % of the controls. In addition, in data set [4] (all strains, all tested concentrations, with and without metabolic activation), the “Mutagenicity (reverse mutation)” value is listed as “non-mutagenous”.
Consider `CC(C)c1c(Cl)nc(N)nc1Cl` [Substance 29, 2-amino-4,6-dichloro-5-isopropylpyrimidine], for which the melting point is 175 to 176 °C.
Compound `CCC(C)c1c(Cl)nc(/N=C/N(C)C)nc1Cl` (stereo not drawn) [Substance 21, 5-sec-butyl-4,6-dichloro-2-{[(dimethylamino)methylene]amino}pyrimidine] gave a melting point of 67 to 68 °C.
On the same count and under the same terms, to `Nc1nc(Cl)c(-c2ccccc2)c(Cl)n1` [Substance 31, 2-amino-4,6-dichloro-5-phenylpyrimidine] belongs 193 to 195 °C; to `CCCCc1c(Cl)nc(C)nc1Cl` [Substance 62, 5-butyl-4,6-dichloro-2-methylpyrimidine], 50 to 51 °C.
As to `CN(C)C=Nc1nc(Cl)c(Cc2ccccc2)c(Cl)n1` [Substance 23], the “Production of nitric oxide in % of the controls” value in data set [1] is on record as 4.41 ± 0.59 % of the controls. For the same compound, in data set [2], the “Production of prostaglandins in % of the controls” value is 3.05 ± 1.26 % of the controls. Besides, the “Cell viability in % of the controls” value with peritoneal cells of mice is 96.24 ± 11.9 % of the controls. In addition, in data set [3] (10 μmol/L), the “Effect on tube formation” value is recorded as “tube disruption” and the “Reduction of tube formation” value is on record as above 90%. Further, in data set [3], the Capillary tube formation entry is “inhibited capillary tube formation in a dose dependent manner” and the “Concentration from which antiangiogenic activity was apparent” value was at least 5 µmol/L. In addition, the HUVEC cell proliferation result in the data set on HUVEC was “did not influence HUVEC cell proliferation”.
In the case of `Cc1c(Cl)nc(N)nc1Cl` [Substance 25, 2-amino-4,6-dichloro-5-methylpyrimidine], the melting point fell in the range of 189 to 190 °C.
The same measure, in the same setting: to `CCCCc1c(Cl)nc(O)nc1Cl` [Substance 65, 5-butyl-4,6-dichloro-2-hydroxypyrimidine] belongs 73 to 75 °C; to `CC(C)c1c(Cl)nc(/N=C/N(C)C)nc1Cl` [Substance 16, 4,6-dichloro-5-isopropyl-2-{[(dimethylamino)methylene]amino}pyrimidine], 77 to 78 °C.
On to `CCc1c(Cl)nc(N)nc1Cl` [Substance 26, 2-amino-4,6-dichloro-5-ethylpyrimidine], for which the melting point lay in the range of 183 to 185 °C.
`O=CNc1nc(Cl)c(-c2ccccc2)c(Cl)n1` [Substance 56, 4,6-dichloro-2-formamido-5-phenylpyrimidine] showed a melting point of 95 to 96 °C.
With `[N-]=[N+]=[N-]` [sodium azide, reference compound], the “Number of revertants, positive control for −MA I” value in data set [4] (arrangement of FIG. 5 (TA 100), without metabolic activation, 1.5 μg) is on record as above 500.
As to `CC(C)c1c(Cl)nc(NC=O)nc1Cl` [Substance 53], the “Production of nitric oxide in % of the controls” value in data set [1] is recorded as 0.70 ± 0.22 % of the controls. Moreover, the “Production of prostaglandins in % of the controls” value in data set [2] was 8.57 ± 0.99 % of the controls. Besides, the “Cell viability in % of the controls” value with peritoneal cells of mice was 60.02 ± 0.29 % of the controls. In addition, in data set [3] (10 μmol/L), the “Effect on tube formation” value was “only limited effect”. In data set [3] (25 μmol/L), the Incomplete tube formation is around 46%. Besides, in data set [3], the Capillary tube formation result is on record as “inhibited capillary tube formation in a dose dependent manner”. Also, the HUVEC cell proliferation entry with HUVEC is listed as “did not influence HUVEC cell proliferation”.
`Cc1c(Cl)nc(/N=C/N(C)C)nc1Cl` [Substance 13, 4,6-dichloro-5-methyl-2-{[(dimethylamino)methylene]amino}pyrimidine] returned a melting point of 84 to 86 °C.

(Values after patent publication US8883798B2, “Pyrimidine compounds inhibiting the formation of nitric oxide and prostaglandin E2, method of production thereof and use thereof” (Ustav Organicke Chemie a Biochemie Akademie Ved CR, V.V.I., priority 2011, dated 2014).)
